Laboratory results reported in patent US20050064382A1, “Method of prevention of lysosomal leakage in eukaryotic cells by using 6-methyluracil based water-soluble compounds and method of producing thereof” (priority 2002, published 2005).

What was measured:
[1] = tested on: Drosophila; test: Sterol-deficit diet and both drugs: frequency of X-chromosomes loss in late oocytes of Drosophila; type: in vivo
Excerpt: The classic genetic model was used, based on the well-known method: the frequency of mutations in Drosophila (fruit flies) caused by X-rays. It is known that the frequency of these mutations can be increased by adding to the food of females certain membrane destabilizers (we used Polyene Antibiotics—Amphotericin B), or by the use of a special diet. Like all insects, Drosophila obtain all of their sterols from food (yeast for Drosophila). A special diet rich with Nistatin (Polyene antibiotic) resistant yeast was used.
The frequency of the loss of x-chromosomes (males excluded) was measured after crossing with the […]. Females were given a dose of 1000 Roentgens 5 days before being given the food additive or “special diet”.
Influence of sterol-deficit diet and both drugs on the frequency of X-chromosomes loss in late oocytes of Drosophila. Groups 1-4 received yeast of wild type, groups 5,6 (diet) received nistatin resistant yeasts meaning groups 5,6 had abnormal sterols in membranes: […]

[2] = tested on: Saccaramices Cerevisiae; test: Viability of lyophilized yeast; type: cell-based; conditions: added prior to lyophilization
Description: The lyophilization of yeast is a very common technique used in different fields of industry, biotechnology and research. The viability of lyophilized yeast species and strains can vary greatly. The viability of commercial baking yeast after lyophilization is high (50-80%). But other strains of yeast used in industry and research, can have viability as low as […]. […] Glucural was tested using the strain of yeast called Saccaramices Cerevisiae, a strain with a very low level of viability after lyophilization. By increasing the viability of lyophilized yeast inoculums, the amount of yeast required to make such inoculums may be lowered.
The standard method of lyophilization was used. […] The suspensions were aliquoted and lyophilized at standard conditions.
To assay the vitality of lyophilized yeast, two approaches were used:
The lyophilized yeast from an ampoule was re-suspended in 1 ml of regular growing medium and diluted by 10, 100, and 1,000 times. The suspensions of yeast were plated on the regular YPD agarose medium by 20 mkl per plate. After growing the colonies for 48 hours at 28° C., the number of colonies was counted.
This test included growing lyophilized yeast in 10 ml of growth medium for 24 hours, before plating on the agarose plates as described above.
The viability of the yeast strain tested increased by a factor of between 50 to 100 compared to the control group.

[3] = tested on: Human umbilical cord vein endothelial cells (HUCVEC); test: HUCVEC Assays 2 and 3: starvation; type: cell-based; conditions: 11 days without change of medium
Description: Glucural was also tested on two primer cell cultures for protection against cell death in sub-optimal conditions.
Human umbilical cord vein endothelial cells (HUCVEC) were isolated from freshly obtained human umbilical cords in accordance with known methods. HUCVEC were grown in multi-well plates. After saturation of the wells, the assays were initiated. Four wells were used for each experimental group. To cause “mechanical” damage, a higher (2-2½ times) centrifugal speed was used to pick up cells after trypsin treatment. To cause enzymatic damage, full-strength trypsin solution was used instead of the recommended diluted concentration. All assays were started from the last change of medium in wells with saturated cell culture (well bottoms were covered completely by cells). Results were estimated from the percentage of the bottom covered by cells on the last day of the assay.
Assay 2 and 3. Starvation—cell growth without change of medium during 11 days. Assays 2 and 3 were performed using two different HUCVEC isolations.

[4] = tested on: Intact MEL cells; test: Cell toxicity of Glucural in intact conditions: growth of MEL; type: cell-based, mouse; conditions: for number of cells per ml, Regular conditions: 24 hours
[5] = tested on: mice; test: Toxicity LD50; type: in vivo
[6] = tested on: THP-1 cells; test: Longer-duration growth of THP-1 cells after DMSO shock and starvation, live cells; type: cell-based, human
Description: Growth was measured after the administration of “DMSO Shock” and without a change of medium. […] Trypan-blue test was used: the number of live cells per 0.1 ml (based on 4 counting iterations).

[7] = tested on: THP-1 cells; test: DMSO shock of THP-1 cells, percentage of dead cells; type: cell-based, human
Description: Cells were incubated in the presence of 10% DMSO at 37° C. for 90 minutes (tryptan-blue test).

**Q.** “complex of 2,4-dihydroxy-6-methylpyrimidine with N-methyl-D-glucamine [Glucural]” was tested. Which “Protective Effect of Glucural, %” value ([1]; Amphotericin B/Glucural vs Amphotericin B) did it give?
**A.** 26%

**Q.** What about the “Frequency of X-Chromosomes loss, %” value ([1]; Diet (nistatin resistant yeasts)) of the same substance?
**A.** 4.1 ± 0.33%

**Q.** What about the “Protective Effect of Glucural, %” value ([1]; Diet/Glucural vs Diet) of the same substance?
**A.** 27%

**Q.** And the “Protective Effect of Glucural, %” value ([1]; Glucural vs Control)?
**A.** 50%

**Q.** And the “Frequency of X-Chromosomes loss, %” value ([1]; yeast of wild type)?
**A.** 0.9 ± 0.14%

**Q.** What about the “optimal dose to protect yeast cells” value [2] of the same substance?
**A.** 25 mkg/ml

**Q.** What about the “Percent of well-bottoms covered by cells” value ([3]; Assay 2, Glucural 300 mkg/ml) of the same substance?
**A.** 70-80%

**Q.** What about the “Percent of well-bottoms covered by cells” value ([3]; Assay 2, Glucural 400 mkg/ml) of the same substance?
**A.** 80-90%

**Q.** What about the “Percent of well-bottoms covered by cells” value ([3]; Assay 2, Glucural 500 mkg/ml) of the same substance?
**A.** 80-90%

**Q.** And the “Percent of well-bottoms covered by cells” value ([3]; Assay 3, Glucural 300 mkg/ml)?
**A.** 100%

**Q.** And the “Percent of well-bottoms covered by cells” value ([3]; Assay 3, Glucural 400 mkg/ml)?
**A.** 100%

**Q.** What about the “Percent of well-bottoms covered by cells” value ([3]; Assay 3, Glucural 500 mkg/ml) of the same substance?
**A.** 100%

**Q.** What about the “number of cells per ml, Regular conditions” value (“number of cells per ml” below) ([4]; Glucural 25 mkg/ml) of the same substance?
**A.** 67 ± 1 x 10^4

**Q.** And the “number of cells per ml” value ([4]; Glucural 50 mkg/ml)?
**A.** 68 ± 1 x 10^4

**Q.** And the “number of cells per ml” value ([4]; Glucural 100 mkg/ml)?
**A.** 71 ± 2 x 10^4

**Q.** And the “number of cells per ml” value ([4]; Glucural 200 mkg/ml)?
**A.** 58 ± 3 x 10^4

**Q.** What about the “number of cells per ml” value ([4]; Glucural 400 mkg/ml) of the same substance?
**A.** 69 ± 5 x 10^4

**Q.** And the “influence on cells in regular conditions” value ([4]; Glucural from 25 to 400 mkg/ml)?
**A.** no influence

**Q.** What about the “LD50 equivalent for a 50-kg person” value ([5]; extrapolated from mice) of the same substance?
**A.** 100 g

**Q.** And the LD50 ([5]; mice)?
**A.** about 2 g/kg

**Q.** What about the “optimal dose for THP-1 cells” value [6] of the same substance?
**A.** 25 mkg/ml

**Q.** And the “number of live cells per 0.1 ml” value ([6]; B Control + Glucural 25 mkg/ml, assay #1, 5 days growing)?
**A.** 241 ± 24 per 0.1 ml

**Q.** What about the “number of live cells per 0.1 ml” value ([6]; B Control + Glucural 25 mkg/ml, assay #3, 4 days growing) of the same substance?
**A.** 136 ± 5 per 0.1 ml

**Q.** And the “number of live cells per 0.1 ml” value ([6]; B Control + Glucural 25 mkg/ml, assay #4, 4 days growing)?
**A.** 160 ± 22 per 0.1 ml

**Q.** And the “number of live cells per 0.1 ml” value ([6]; D DMSO shock + Glucural 25 mkg/ml, assay #1, 5 days growing)?
**A.** 228 ± 48 per 0.1 ml

**Q.** What about the “number of live cells per 0.1 ml” value ([6]; D DMSO shock + Glucural 25 mkg/ml, assay #2, 6 days growing) of the same substance?
**A.** 184 ± 19 per 0.1 ml

**Q.** What about the “number of live cells per 0.1 ml” value ([6]; D DMSO shock + Glucural 25 mkg/ml, assay #3, 4 days growing) of the same substance?
**A.** 137 ± 6 per 0.1 ml

**Q.** What about the “number of live cells per 0.1 ml” value ([6]; D DMSO shock + Glucural 25 mkg/ml, assay #4, 4 days growing) of the same substance?
**A.** 222 ± 42 per 0.1 ml

**Q.** And the “percentage of dead THP-1 cells” value ([7]; Control + Glucural 25 mkg/ml, assay 1)?
**A.** 3.9 ± 0.7%

**Q.** What about the “percentage of dead THP-1 cells” value ([7]; Control + Glucural 25 mkg/ml, assay 2) of the same substance?
**A.** 5.8 ± 3.1%

**Q.** And the “percentage of dead THP-1 cells” value ([7]; Control + Glucural 25 mkg/ml, assay 4)?
**A.** 3.0 ± 1.0%

**Q.** And the “percentage of dead THP-1 cells” value ([7]; DMSO shock (10% DMSO, 37° C., 90 minutes) + Glucural 25 mkg/ml, assay 1)?
**A.** 4.1 ± 1.6%

**Q.** What about the “percentage of dead THP-1 cells” value ([7]; DMSO shock (10% DMSO, 37° C., 90 minutes) + Glucural 25 mkg/ml, assay 2) of the same substance?
**A.** 7.7 ± 3.4%

**Q.** And the “percentage of dead THP-1 cells” value ([7]; DMSO shock (10% DMSO, 37° C., 90 minutes) + Glucural 25 mkg/ml, assay 3)?
**A.** 4.6 ± 2.2%

**Q.** And the “percentage of dead THP-1 cells” value ([7]; DMSO shock (10% DMSO, 37° C., 90 minutes) + Glucural 25 mkg/ml, assay 4)?
**A.** 5.0 ± 2.3%
